Entries after “also recorded” stand apart in the source; their conditions may differ.
How the values were obtained:
[1] = system: Cushing's syndrome patients; assay: Clinical study of relacorilant in Cushing's syndrome patients (coagulation factors, inflammation markers, comorbidities); format: in vivo, human
Source text: In TABLE 1 above, the P-value is a Wilcoxon Signed Rank P-value; mean change from baseline indicates the mean change from the initial (baseline) values to the last-observed values; Factor VIII values are reported as percent of normal values; platelet counts and eosinophil counts are reported as numbers of cells per liter; APTT indicates activated partial thromboplastin time, measured in seconds; and serum osteocalcin measures levels of the vitamin K-related hormone osteocalcin outside of bone. […] Relacorilant was administered to the patients once per day for four months. Two groups of Cushing's syndrome patients received relacorilant. Group 1 received 100 milligrams per day (mg/day) which, if tolerated, was raised to 200 mg/day for the 16 weeks of the study. Group 2 received relacorilant doses according to the following schedule: the starting doses were 250 milligrams (mg) per day of relacorilant for four weeks, followed by 300 mg/day relacorilant for the next four weeks, followed by 350 mg/day relacorilant for a further four weeks, and then 400 mg relacorilant for another four weeks. […] Factor VIII and von Willebrand Factor at baseline, prior to relacorilant administration (left-most pair of columns); after four weeks of relacorilant treatment (middle pair of columns); and after 3 or 4 months of relacorilant treatment (right-most pair of columns). Factor VIII levels are reduced, as compared to baseline, at week four and after 3 or 4 months of relacorilant treatment. […] The APTT of Group 2 patients receiving relacorilant was measured at baseline (before relacorilant administration) and after 16 weeks (or following the last relacorilant administration for those patients who […] the full 16 weeks of relacorilant administration). […] Increased APTT indicates an increase in the time for blood coagulation; that is, a reduction in hypercoagulation.

[2] = system: Cushing's syndrome patients; settings: see U.S. Patent Application 62/783,015; cited from earlier work
[3] = baseline to last-observed values, cells per liter
[4] = generally observed within two weeks of achieving a therapeutic dose

With `Cn1cc(S(=O)(=O)N2CCC3=Cc4c(cnn4-c4ccc(F)cc4)C[C@]3(C(=O)c3cc(C(F)(F)F)ccn3)C2)cn1` [relacorilant, (R)-(1-(4-fluorophenyl)-6-((1-methyl-1H-pyrazol-4-yl)sulfonyl)-4,4a,5,6,7,8-hexahydro-1H-pyrazolo[3,4-g]isoquinolin-4a-yl)(4-(trifluoromethyl)pyridin-2-yl)methanone] the “Coagulation profile (coagulation factors, thrombin-antithrombin) compared to baseline” value ([1]; FIG. 2B) was “improved compared to baseline”, the “APTT compared to baseline” value ([1]; Group 2 patients (250 to 400 mg/day), 12 patients, after 16 weeks or last administration (FIG. 2A), p-value 0.014) was “increased significantly” and the “Von Willebrand factor levels compared to baseline” value ([1]; after 3 or 4 months of relacorilant treatment (FIG. 1A)) was “return to baseline levels”. The “C-Reactive protein levels compared to baseline” value ([1]; after 3 or 4 months of relacorilant treatment (FIG. 3)) was “return to baseline levels”, the “Factor VIII levels compared to baseline” value ([1]; after 3 or 4 months of relacorilant treatment, end of study (FIG. 1A)) was “reduced; also recorded: normalized” and the “Abnormally elevated coagulation factors caused by excess cortisol activity” value ([1]; as early as after one month of treatment) was “Improvement/normalization”. For the same molecule, the “Von Willebrand factor levels compared to baseline” value ([1]; at four weeks of relacorilant treatment (FIG. 1A)) was “initially rise somewhat”, the “C-Reactive protein levels compared to baseline” value ([1]; at four weeks of relacorilant treatment (FIG. 3)) was “initially rise somewhat” and the “Serum Osteocalcin, Mean Change from Baseline” value ([1]; baseline to last-observed values) was 3.00 µg/L. For the same molecule, the “Coagulopathy (APTT), Mean Change from Baseline” value ([1]; baseline to last-observed values, activated partial thromboplastin time) was “+1.45 Seconds”, the “Coagulopathy (Platelets), Mean Change from Baseline” value [1, 3] was −68.82 10^9/L and the “Inflammation (eosinophils), Mean Change from Baseline” value [1, 3] was 0.05 10^9/L. The “Coagulopathy (Factor VIII), Mean Change from Baseline” value ([1]; baseline to last-observed values, percent of normal values, Cushing's syndrome patients, relacorilant once per day) was −18.94%, the Thromboembolic events ([1]; clinical study of 35 Cushing's syndrome patients treated with relacorilant) was “No thromboembolic events were observed” and the Hyperglycemia [1, 4] was “improvement”. The Hypertension [1, 4] was “improvement”, the “Factor VIII levels compared to baseline” value ([1]; week four of relacorilant treatment (FIG. 1A)) was “reduced” and the Effect on cortisol [2] was “not raising cortisol”. For the same molecule, the Risk of hypokalemia [2] was “not increasing the risk of hypokalemia”.

Reference: patent US12102642B2, “Treatment of hypercoagulopathy in Cushing's syndrome by administration of glucocorticoid receptor modulators” (Corcept Therapeutics Incorporated, priority 2018, dated 2024)
